For one test, the system named is Reticulitermes lalvipes. Description: Treated filter pad and pine wood chip petri dish termite kill test. It counts as in vivo. The note with it: 8 days after treatment, 13° C. The procedure: Subterranean worker termites, Reticulitermes lalvipes, were purchased from Carolina Biological Supply Co. The insects were stored with their shipping material, decayed wood chips and moist paper towels, in an unlit growth chamber at 13° C. for three days prior to start of the test. This delay was to acclimate the termites to the test conditions as well as to eliminate weak individuals.
The compounds tested, 100 mg each, were dissolved in 10 mL of pure ethanol (dehydrated, 200 proof) to provide a solution of 10,000 ppm. The solution was serial diluted by 10× to achieve dilutions of 1,000, 100, 10, and 1 ppm. A pure cellulose fiber filter pad was soaked with 1 mL of each test sample and placed into a Falcon petri dish (50×9 mm sterile polystyrene). In addition, a pine wood chip, approximately 12×12×4 mm was dipped into the test solution for 30 seconds and placed on the filter paper. Solvent from the treated filters and wood chips was then allowed to evaporate for 24 hours. The next day, five termites were placed on the filter pad and the upper lid of the petri plate was secured. Three replications were used for each treatment.
The termites in the petri dishes were returned to the growth chamber at 13° C. The humidity was high enough to allow for condensation on the upper plate surface, which provided water for the termites. The petri dishes were briefly removed from the chamber at 2, 4, and 8 days after treatment to count the number of live termites. Data was expressed as the percentage of control (kill) of termites.

Another test deals with Reticulitermes. Briefly: AWPA E1-97 treated southern yellow pine wood block termite test. It counts as in vivo. The note with it: treated southern yellow pine wood blocks, four weeks. The procedure:
Compounds of Formula I were evaluated using standard evaluation methodology as prescribed by the American Wood Preservers Association Standard AWPA E1-97, incorporated herein by reference, using a species of the destructive termite, Reticulitermes.
In this test replicate containers containing damp sand and southern yellow pine wood blocks treated with the compound are used. Termites are introduced into the test container and after four weeks the containers are disassembled and the wood blocks are evaluated for termite damage. Termite mortality is also evaluated.

On to `O=C(Nc1cc(Cl)c(Cl)cc1Cl)c1sc(C(F)(F)F)nc1C(F)(F)F` [Compound 7], for which the “Control (% kill at 8 days)” value in the test with Reticulitermes lalvipes (dose 1 ppm) is reported as 73%; with Reticulitermes lalvipes (dose 10 ppm), 60%; with Reticulitermes lalvipes (dose 100 ppm), 87%; with Reticulitermes lalvipes (dose 1,000 ppm), 100%; in the test on Reticulitermes lalvipes (dose 10,000 ppm) it was 100%.
Turning to `O=C(Nc1cc(Cl)c(Cl)c(Cl)c1)c1sc(C(F)(F)F)nc1C(F)(F)F` [Compound 4], the “Control (% kill at 8 days)” value was found to be 77% in the test on Reticulitermes lalvipes (dose 1 ppm); 47% in the test with Reticulitermes lalvipes (dose 10 ppm); 33% in the test with Reticulitermes lalvipes (dose 100 ppm); 73% in the test on Reticulitermes lalvipes (dose 1,000 ppm); 100% in the test with Reticulitermes lalvipes (dose 10,000 ppm).
Consider `O=C(Nc1ccc(Cl)c(Cl)c1Cl)c1sc(C(F)(F)F)nc1C(F)(F)F` [Compound 6], for which the “Control (% kill at 8 days)” value in the test with Reticulitermes lalvipes (dose 1 ppm) is 33%; in the test on Reticulitermes lalvipes (dose 10 ppm), 27%; in the test on Reticulitermes lalvipes (dose 100 ppm), 53%; with Reticulitermes lalvipes (dose 1,000 ppm) it was 100%; in the test on Reticulitermes lalvipes (dose 10,000 ppm) it was 100%.
Regarding `CCOP(=S)(OCC)Oc1nc(Cl)c(Cl)cc1Cl` [Comparative, chlorpyrifos, reference compound], the “Minimum Retention Preventing Termite Attack” value in the test on Reticulitermes is given as over 0.160 kg/m^3.
On to `O=C(Nc1c(Br)cc(OC(F)(F)F)cc1Br)c1sc(C(F)(F)F)nc1C(F)(F)F` [Compound 5], for which the “Minimum Retention Preventing Termite Attack” value with Reticulitermes is listed as 0.768 kg/m^3.
In the case of `O=C(Nc1ccc(Cl)cc1Cl)c1sc(C(F)(F)F)nc1C(F)(F)F` [Compound 8], the “Control (% kill at 8 days)” value with Reticulitermes lalvipes (dose 1 ppm) came to 7%; in the test on Reticulitermes lalvipes (dose 10 ppm) it was 0%; with Reticulitermes lalvipes (dose 100 ppm), 0%; in the test on Reticulitermes lalvipes (dose 1,000 ppm), 20%; in the test with Reticulitermes lalvipes (dose 10,000 ppm) it was 100%.
Regarding `O=C(Nc1cc(Cl)ccc1Cl)c1sc(C(F)(F)F)nc1C(F)(F)F` [Compound 9], the “Control (% kill at 8 days)” value stood at 27% in the test on Reticulitermes lalvipes (dose 1 ppm); 40% in the test with Reticulitermes lalvipes (dose 10 ppm); 20% with Reticulitermes lalvipes (dose 100 ppm); 53% in the test with Reticulitermes lalvipes (dose 1,000 ppm); 100% in the test on Reticulitermes lalvipes (dose 10,000 ppm).
In the same order, the values of `O=C(Nc1c(Cl)cccc1Cl)c1sc(C(F)(F)F)nc1C(F)(F)F` [Compound 10] are 7%, 0%, 0%, 67% and 73%.
Regarding `O=C(Nc1cc(Cl)cc(Cl)c1)c1sc(C(F)(F)F)nc1C(F)(F)F` [Compound 11], the “Control (% kill at 8 days)” value in the test on Reticulitermes lalvipes (dose 1 ppm) worked out at 0%; in the test with Reticulitermes lalvipes (dose 10 ppm), 7%; in the test with Reticulitermes lalvipes (dose 100 ppm), 13%; in the test on Reticulitermes lalvipes (dose 1,000 ppm), 13%; in the test with Reticulitermes lalvipes (dose 10,000 ppm) it was 67%.

The values are drawn from patent US6423730B1, “Method to control termites” (Dow AgroSciences LLC, priority 1999, dated 2002).
